Experimental data as given in publication PMC10700596 (Nature Communications, 2023).
“And” between values parts separate entries of the source, which are not always exact repeats. Equal entries are not always repeated. “Also recorded” adds a separate entry of the source. Where two headings read alike, the source gives them in different places.

What was measured:
ABL1-nonphosphorylated = ABL1-nonphosphorylated (Homo sapiens, UniProt P00519); assay: biochemical; type: binding; details: 10000 nM; read-out: Percent Control
320 GPCRs [1] = target: 320 GPCRs (Homo sapiens, UniProt Q96LB0); type: cell-based
Sequence of 320 GPCRs (Homo sapiens, UniProt Q96LB0) (Q96LB0 whole entry): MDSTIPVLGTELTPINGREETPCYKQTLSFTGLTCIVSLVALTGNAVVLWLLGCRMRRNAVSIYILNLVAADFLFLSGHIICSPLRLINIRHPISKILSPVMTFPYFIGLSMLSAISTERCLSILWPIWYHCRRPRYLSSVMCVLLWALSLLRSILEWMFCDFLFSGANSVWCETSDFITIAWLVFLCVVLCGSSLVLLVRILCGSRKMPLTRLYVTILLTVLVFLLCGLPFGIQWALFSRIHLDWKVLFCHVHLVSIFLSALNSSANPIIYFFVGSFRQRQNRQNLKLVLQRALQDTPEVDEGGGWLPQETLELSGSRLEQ

320 GPCRs [2] = target: 320 GPCRs (Homo sapiens, UniProt P25100); type: cell-based
320 GPCRs [3] = target: 320 GPCRs (Homo sapiens, UniProt Q8IZF5); type: cell-based
320 GPCRs [4] = target: 320 GPCRs (Homo sapiens, UniProt P47775); type: cell-based
320 GPCRs [5] = target: 320 GPCRs (Homo sapiens, UniProt Q9NQS5); type: cell-based
Sequence of 320 GPCRs (Homo sapiens, UniProt Q9NQS5) (Q9NQS5 whole entry): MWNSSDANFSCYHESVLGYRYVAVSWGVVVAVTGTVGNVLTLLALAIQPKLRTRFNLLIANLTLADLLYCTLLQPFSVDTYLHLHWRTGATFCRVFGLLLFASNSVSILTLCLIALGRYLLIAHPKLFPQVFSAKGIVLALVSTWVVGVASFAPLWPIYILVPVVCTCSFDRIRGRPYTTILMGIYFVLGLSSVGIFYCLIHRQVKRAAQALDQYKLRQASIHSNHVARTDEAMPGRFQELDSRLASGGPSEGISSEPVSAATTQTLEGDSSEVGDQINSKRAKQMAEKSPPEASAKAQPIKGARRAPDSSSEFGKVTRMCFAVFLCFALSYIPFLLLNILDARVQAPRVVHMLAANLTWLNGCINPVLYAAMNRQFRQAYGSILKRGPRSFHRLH

320 GPCRs [6] = target: 320 GPCRs (Homo sapiens, UniProt P48039); type: cell-based
320 GPCRs [7] = target: 320 GPCRs (Homo sapiens, UniProt Q14416); type: cell-based
Sequence of 320 GPCRs (Homo sapiens, UniProt Q14416) (Q14416 19-872): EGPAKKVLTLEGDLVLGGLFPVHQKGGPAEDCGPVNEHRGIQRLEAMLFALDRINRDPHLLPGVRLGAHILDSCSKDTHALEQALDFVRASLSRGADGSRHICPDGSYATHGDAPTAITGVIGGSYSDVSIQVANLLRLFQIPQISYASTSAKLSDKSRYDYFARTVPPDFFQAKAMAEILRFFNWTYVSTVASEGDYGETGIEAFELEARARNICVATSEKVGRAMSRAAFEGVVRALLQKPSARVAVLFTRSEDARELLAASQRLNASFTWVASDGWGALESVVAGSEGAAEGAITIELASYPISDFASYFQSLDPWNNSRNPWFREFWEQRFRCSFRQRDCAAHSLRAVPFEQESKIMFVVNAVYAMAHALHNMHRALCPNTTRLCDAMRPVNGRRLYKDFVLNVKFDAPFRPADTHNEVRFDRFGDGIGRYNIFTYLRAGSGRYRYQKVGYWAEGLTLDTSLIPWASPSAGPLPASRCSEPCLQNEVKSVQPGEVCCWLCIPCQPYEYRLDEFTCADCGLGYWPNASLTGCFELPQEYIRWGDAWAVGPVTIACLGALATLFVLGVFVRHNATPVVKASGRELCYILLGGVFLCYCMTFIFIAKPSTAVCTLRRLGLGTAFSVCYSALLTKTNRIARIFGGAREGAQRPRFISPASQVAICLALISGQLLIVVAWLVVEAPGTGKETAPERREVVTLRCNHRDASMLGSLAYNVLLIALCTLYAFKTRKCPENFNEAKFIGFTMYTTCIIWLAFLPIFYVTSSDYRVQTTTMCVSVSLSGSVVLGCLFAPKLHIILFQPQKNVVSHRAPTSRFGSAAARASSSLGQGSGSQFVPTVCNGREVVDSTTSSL

320 GPCRs [8] = target: 320 GPCRs (Homo sapiens, UniProt Q86SQ4); type: cell-based
Sequence of 320 GPCRs (Homo sapiens, UniProt Q86SQ4) (Q86SQ4 38-1221): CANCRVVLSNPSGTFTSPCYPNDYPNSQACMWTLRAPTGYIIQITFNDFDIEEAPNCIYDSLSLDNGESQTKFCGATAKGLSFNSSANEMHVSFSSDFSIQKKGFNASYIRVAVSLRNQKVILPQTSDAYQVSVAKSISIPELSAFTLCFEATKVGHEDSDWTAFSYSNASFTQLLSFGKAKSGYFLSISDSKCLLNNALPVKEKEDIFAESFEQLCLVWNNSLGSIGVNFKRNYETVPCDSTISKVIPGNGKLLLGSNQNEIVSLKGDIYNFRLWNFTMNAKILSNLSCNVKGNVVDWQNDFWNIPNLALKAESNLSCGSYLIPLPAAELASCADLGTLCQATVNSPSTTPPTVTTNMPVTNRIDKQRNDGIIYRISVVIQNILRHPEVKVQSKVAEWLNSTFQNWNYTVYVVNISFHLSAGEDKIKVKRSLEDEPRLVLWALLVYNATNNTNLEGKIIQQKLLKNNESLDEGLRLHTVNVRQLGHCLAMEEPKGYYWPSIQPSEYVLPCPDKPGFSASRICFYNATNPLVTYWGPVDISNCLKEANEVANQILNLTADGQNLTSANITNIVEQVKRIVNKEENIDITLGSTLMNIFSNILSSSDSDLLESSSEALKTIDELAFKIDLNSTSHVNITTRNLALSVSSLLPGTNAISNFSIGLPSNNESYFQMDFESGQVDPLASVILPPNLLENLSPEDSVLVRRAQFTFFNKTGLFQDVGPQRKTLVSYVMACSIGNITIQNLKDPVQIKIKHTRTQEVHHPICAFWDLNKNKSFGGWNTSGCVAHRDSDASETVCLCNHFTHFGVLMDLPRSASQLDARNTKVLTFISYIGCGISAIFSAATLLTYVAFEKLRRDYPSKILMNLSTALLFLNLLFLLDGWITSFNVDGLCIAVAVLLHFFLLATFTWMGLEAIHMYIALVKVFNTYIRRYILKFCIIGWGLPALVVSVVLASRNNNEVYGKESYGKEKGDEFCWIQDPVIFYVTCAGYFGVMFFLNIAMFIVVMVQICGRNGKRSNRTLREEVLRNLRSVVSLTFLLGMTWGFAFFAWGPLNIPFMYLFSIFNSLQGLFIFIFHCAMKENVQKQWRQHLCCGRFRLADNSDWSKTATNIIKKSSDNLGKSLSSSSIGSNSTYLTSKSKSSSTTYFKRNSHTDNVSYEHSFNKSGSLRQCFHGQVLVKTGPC

320 GPCRs [9] = target: 320 GPCRs (Homo sapiens, UniProt Q7Z7M1); type: cell-based
320 GPCRs [10] = target: 320 GPCRs (Homo sapiens, UniProt O14842); type: cell-based
320 GPCRs [11] = target: 320 GPCRs (Homo sapiens, UniProt O00222); type: cell-based
Sequence of 320 GPCRs (Homo sapiens, UniProt O00222) (O00222 34-908): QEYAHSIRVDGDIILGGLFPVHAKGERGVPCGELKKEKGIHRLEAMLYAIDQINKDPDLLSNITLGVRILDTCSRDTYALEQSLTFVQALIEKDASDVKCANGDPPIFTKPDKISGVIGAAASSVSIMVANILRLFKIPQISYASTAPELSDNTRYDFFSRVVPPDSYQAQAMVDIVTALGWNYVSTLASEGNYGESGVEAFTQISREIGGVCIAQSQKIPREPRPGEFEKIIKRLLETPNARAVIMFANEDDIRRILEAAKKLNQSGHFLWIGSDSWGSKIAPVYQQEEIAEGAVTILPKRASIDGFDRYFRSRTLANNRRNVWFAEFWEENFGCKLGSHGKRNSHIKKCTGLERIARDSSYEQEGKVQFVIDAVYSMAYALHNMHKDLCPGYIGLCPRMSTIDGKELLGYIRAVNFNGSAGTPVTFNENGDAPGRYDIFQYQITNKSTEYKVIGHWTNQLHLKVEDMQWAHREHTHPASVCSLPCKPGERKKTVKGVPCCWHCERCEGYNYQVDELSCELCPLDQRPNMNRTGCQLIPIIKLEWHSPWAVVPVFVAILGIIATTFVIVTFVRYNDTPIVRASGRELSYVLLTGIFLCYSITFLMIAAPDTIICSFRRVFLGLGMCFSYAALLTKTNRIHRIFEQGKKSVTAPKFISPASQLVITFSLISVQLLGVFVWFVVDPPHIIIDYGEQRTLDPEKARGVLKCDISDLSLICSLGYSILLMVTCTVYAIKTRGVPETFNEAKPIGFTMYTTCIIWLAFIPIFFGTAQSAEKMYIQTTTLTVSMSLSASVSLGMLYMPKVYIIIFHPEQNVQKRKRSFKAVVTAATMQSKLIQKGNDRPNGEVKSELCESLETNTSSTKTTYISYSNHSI

320 GPCRs [12] = target: 320 GPCRs (Homo sapiens, UniProt P35348); type: cell-based
320 GPCRs [13] = target: 320 GPCRs (Homo sapiens, UniProt P30968); type: cell-based
320 GPCRs [14] = target: 320 GPCRs (Homo sapiens, UniProt P30411); type: cell-based
320 GPCRs [15] = target: 320 GPCRs (Homo sapiens, UniProt P21731); type: cell-based
320 GPCRs [16] = target: 320 GPCRs (Homo sapiens, UniProt Q15760); type: cell-based
Sequence of 320 GPCRs (Homo sapiens, UniProt Q15760) (Q15760 whole entry): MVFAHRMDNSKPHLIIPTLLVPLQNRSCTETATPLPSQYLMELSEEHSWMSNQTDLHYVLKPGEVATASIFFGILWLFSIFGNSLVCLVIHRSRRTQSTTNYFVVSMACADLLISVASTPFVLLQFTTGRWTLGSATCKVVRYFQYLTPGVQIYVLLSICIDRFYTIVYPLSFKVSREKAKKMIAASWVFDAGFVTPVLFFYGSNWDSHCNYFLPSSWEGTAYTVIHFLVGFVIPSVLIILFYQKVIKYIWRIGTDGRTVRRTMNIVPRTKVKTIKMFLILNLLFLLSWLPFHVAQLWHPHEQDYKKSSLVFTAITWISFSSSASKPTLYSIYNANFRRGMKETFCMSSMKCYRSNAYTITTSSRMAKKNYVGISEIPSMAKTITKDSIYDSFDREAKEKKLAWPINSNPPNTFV

EP4R = target: T1, EP4R (Homo sapiens, UniProt P35408); assay: cell-based; details: read-out: cAMP Assay KB
T1 construct: Tango fusion cassette (only 'tango' is printed); expressed in transfected cells; host or cells: HTLA cells (tTA-dependent luciferase reporter, β-arrestin2-TEV fusion)

IKK-beta = IKK-beta (Homo sapiens, UniProt O14920); assay: biochemical; type: binding; details: 10000 nM; read-out: Percent Control
CDK3 = CDK3 (Homo sapiens, UniProt Q00526); assay: biochemical; type: binding; details: 10000 nM; read-out: Percent Control
EP2R = EP2R (Homo sapiens, UniProt P43116); assay: Radioligand (3H-PGE2) displacement assay at EP2R; type: binding
COX-1 = target: T2, COX-1 (Homo sapiens, UniProt P23219); assay: COX-1 inhibition (Eurofins item 4173); type: biochemical
T2 construct: purchased Eurofins item 4173
T2 sequence (P23219 24-599): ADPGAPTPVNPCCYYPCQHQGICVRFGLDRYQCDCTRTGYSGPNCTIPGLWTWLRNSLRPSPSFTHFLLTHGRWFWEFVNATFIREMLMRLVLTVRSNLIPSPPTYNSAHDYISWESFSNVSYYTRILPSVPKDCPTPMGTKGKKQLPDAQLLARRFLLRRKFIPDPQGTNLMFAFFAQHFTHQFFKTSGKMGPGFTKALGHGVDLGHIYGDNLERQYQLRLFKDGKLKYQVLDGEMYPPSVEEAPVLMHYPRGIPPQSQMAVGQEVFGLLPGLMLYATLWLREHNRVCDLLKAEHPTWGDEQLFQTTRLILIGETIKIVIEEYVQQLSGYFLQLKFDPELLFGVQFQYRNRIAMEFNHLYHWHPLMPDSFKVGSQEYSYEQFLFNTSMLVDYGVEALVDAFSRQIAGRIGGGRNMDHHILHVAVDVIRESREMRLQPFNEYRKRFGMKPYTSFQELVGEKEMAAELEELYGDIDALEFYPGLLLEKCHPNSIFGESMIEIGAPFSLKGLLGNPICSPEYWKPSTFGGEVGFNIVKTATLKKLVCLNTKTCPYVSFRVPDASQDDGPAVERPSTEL
Text: . […] This panel includes several adverse drug reaction receptors such as the serotonin receptor 5HT2b, M1 and M2 muscarinic receptors and adrenergic receptors. […]. page 7:
Supplementary Figure 7: Non-GPCR off-target screening for 74. a)-e) Dose-response curves of 74 at […]
proliferator-activated receptor gamma (PPARγ, Eurofins item G124). Data in a)-e) and g)-i) represent two technical replicates. Source data are provided as a Source Data file.
(§1) (1 picture or pasted object on this page, not shown here)

TSSK1B = TSSK1B (Homo sapiens, UniProt Q9BXA7); assay: biochemical; type: binding; details: 10000 nM; read-out: Percent Control
AURKB = AURKB (Homo sapiens, UniProt Q96GD4); assay: biochemical; type: binding; details: 10000 nM; read-out: Percent Control
Text: as §1

FGFR3 = FGFR3 (Homo sapiens, UniProt P22607); assay: biochemical; type: binding; details: 10000 nM; read-out: Percent Control
[17] = target: T3, JAK2(JH1domain-catalytic) (Homo sapiens, UniProt O60674); assay: KINOMEscan; type: binding
T3 construct: JAK2(JH1domain-catalytic); purchased Eurofins DiscoverX KINOMEscan (scanEDGE, 97 kinases)
T3 sequence (O60674 810-1132 limits assumed): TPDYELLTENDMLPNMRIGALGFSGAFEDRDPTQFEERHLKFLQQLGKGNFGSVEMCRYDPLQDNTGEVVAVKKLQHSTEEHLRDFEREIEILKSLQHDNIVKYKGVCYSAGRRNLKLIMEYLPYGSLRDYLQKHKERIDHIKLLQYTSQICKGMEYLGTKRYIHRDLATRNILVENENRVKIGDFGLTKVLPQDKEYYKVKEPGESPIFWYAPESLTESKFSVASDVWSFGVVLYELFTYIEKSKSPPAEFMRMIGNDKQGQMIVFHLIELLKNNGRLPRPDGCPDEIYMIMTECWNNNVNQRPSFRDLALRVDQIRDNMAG

[18] = target: T4, prostaglandin D2 (PGD2) receptor (Homo sapiens, UniProt Q9Y5Y4); assay: Functional cAMP production assay, PGD2 receptor; type: cell-based
T4 sequence (Q9Y5Y4 1-395): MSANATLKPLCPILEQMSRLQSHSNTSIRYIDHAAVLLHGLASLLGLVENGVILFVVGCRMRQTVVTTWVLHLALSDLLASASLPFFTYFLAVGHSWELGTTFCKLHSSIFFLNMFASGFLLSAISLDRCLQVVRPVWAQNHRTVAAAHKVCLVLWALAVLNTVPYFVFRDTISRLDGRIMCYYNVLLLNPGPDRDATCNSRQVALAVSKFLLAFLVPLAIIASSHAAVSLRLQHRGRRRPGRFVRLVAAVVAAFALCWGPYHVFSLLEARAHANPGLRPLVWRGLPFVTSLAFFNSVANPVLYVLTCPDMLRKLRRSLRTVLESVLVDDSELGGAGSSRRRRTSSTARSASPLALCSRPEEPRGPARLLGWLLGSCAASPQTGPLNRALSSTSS

CDK9 = CDK9 (Homo sapiens, UniProt P50750); assay: biochemical; type: binding; details: 10000 nM; read-out: Percent Control
mice [19] = type: in vivo; details: absence of injury
mice [20] = type: in vivo; details: for Carrageenan-induced allodynia, mechanical threshold (von Frey): individual animals

O=C(O)C1CCC2(CC1)CC(Nc1ncnc3[nH]c4c(F)cccc4c13)C2 (stereo not shown) [Compound 74, OC(=O)C1CCC2(CC(C2)NC=3N=CN=C4NC=5C(F)=CC=CC5C34)CC1]
remaining activity at 10 µM (ABL1-nonphosphorylated): 67%
RLU (Fold over Basal) (320 GPCRs [1]): 1 Fold over Basal and 1.4 Fold over Basal and 0.9 Fold over Basal
RLU (Fold over Basal) (320 GPCRs [2]): 1.5 Fold over Basal and 1.7 Fold over Basal and 1.6 Fold over Basal and 0.9 Fold over Basal
RLU (Fold over Basal) (320 GPCRs [3]): 1.6 Fold over Basal and 1.9 Fold over Basal and 1.1 Fold over Basal and 1.2 Fold over Basal
RLU (Fold over Basal) (320 GPCRs [4]): 0.6 Fold over Basal and 1 Fold over Basal
RLU (Fold over Basal) (320 GPCRs [5]): 1 Fold over Basal and 0.8 Fold over Basal and 1.1 Fold over Basal
RLU (Fold over Basal) (320 GPCRs [6]): 0.9 Fold over Basal and 0.8 Fold over Basal
RLU (Fold over Basal) (320 GPCRs [7]): 1 Fold over Basal and 1.1 Fold over Basal and 0.9 Fold over Basal
RLU (Fold over Basal) (320 GPCRs [8]): 1 Fold over Basal and 1.1 Fold over Basal and 0.9 Fold over Basal and 1.5 Fold over Basal
RLU (Fold over Basal) (320 GPCRs [9]): 1.3 Fold over Basal and 0.7 Fold over Basal
RLU (Fold over Basal) (320 GPCRs [10]): 1.6 Fold over Basal and 0.9 Fold over Basal
RLU (Fold over Basal) (320 GPCRs [11]): 1.1 Fold over Basal and 0.8 Fold over Basal and 1.5 Fold over Basal
RLU (Fold over Basal) (320 GPCRs [12]): 0.4 Fold over Basal and 0.7 Fold over Basal and 0.8 Fold over Basal
RLU (Fold over Basal) (320 GPCRs [13]): 1 Fold over Basal and 0.5 Fold over Basal and 0.6 Fold over Basal
RLU (Fold over Basal) (320 GPCRs [14]): 0.4 Fold over Basal and 0.5 Fold over Basal and 0.6 Fold over Basal
RLU (Fold over Basal) (320 GPCRs [15]): 1.2 Fold over Basal and 1.1 Fold over Basal and 0.7 Fold over Basal
RLU (Fold over Basal) (320 GPCRs [16]): 1 Fold over Basal and 1.3 Fold over Basal and 0.9 Fold over Basal and 1.8 Fold over Basal
Kb (EP4R): 16 nM
remaining activity at 10 µM (IKK-beta): 3.2%
remaining activity at 10 µM (CDK3): 100%
binding to EP2 receptor (EP2R): no binding
inhibitory / off-target activity at COX-1 (COX-1; 3 µM): no off-target activity; also recorded: no inhibitory activity
%Inhibition of Control Values (COX-1; COX-1, 3 µM, technical replicates): -5.7% and -9.9%
remaining activity at 10 µM (TSSK1B): 52%
remaining activity at 10 µM (AURKB): 8.2%
remaining activity at 10 µM (FGFR3): 81%
remaining binding at 10 µM ([17]; 10000 nM, read-out: Percent Control): 0%
Signal (qPCR) ([17]; JAK2, [Compound] 0.001 nM): 2.42e-6 and 2.15e-6
Signal (qPCR) ([17]; JAK2, [Compound] 0.01 nM): 2.35e-6 and 2.44e-6
Signal (qPCR) ([17]; JAK2, [Compound] 0.169 nM): 2.62e-6 and 2.24e-6
Signal (qPCR) ([17]; JAK2, [Compound] 0.508 nM): 2.26e-6 and 2.31e-6
Signal (qPCR) ([17]; JAK2, [Compound] 1.52 nM): 2.56e-6 and 2.32e-6
Signal (qPCR) ([17]; JAK2, [Compound] 13.7 nM): 2.33e-6 and 2.17e-6
Signal (qPCR) ([17]; JAK2, [Compound] 41.2 nM): 2.15e-6 and 2.16e-6
Signal (qPCR) ([17]; JAK2, [Compound] 123 nM): 2.08e-6 and 2e-6
Signal (qPCR) ([17]; JAK2, [Compound] 370 nM): 1.2e-6
Signal (qPCR) ([17]; JAK2, [Compound] 3330 nM): 1.6e-7 and 1.8e-7
Signal (qPCR) ([17]; JAK2, [Compound] 10000 nM): 4e-8
off-target activity at prostaglandin D2 receptor [18]: no off-target activities
remaining activity at 10 µM (CDK9): 97%

O=C([O-])C1CCC2(CC1)CC(Nc1ncnc3[nH]c4c(F)cccc4c13)C2.[Na+] (stereo not shown) [Compound 77, [Na+].[O-]C(=O)C1CCC2(CC(C2)NC=3N=CN=C4NC=5C(F)=CC=CC5C34)CC1]
effect on baseline mechanical thresholds (mice [19]): no effect
Carrageenan-induced allodynia, mechanical threshold (von Frey) (mice [20]; 10 mg/kg IP): 27 and 58.1 and 18.1 and 18.3 and 32 and 31.3 and 24.3 and 20.9 and 32.5 and 40
effect on carrageenan-mediated mechanical allodynia (mice [20]; 10 mg/kg i.p.): equal anti-allodynic effects; also recorded: equally reduce carrageenan-mediated mechanical allodynia
Carrageenan-induced allodynia, mechanical threshold (von Frey) (mice [20]; 30 mg/kg IP): 30.3 and 39.4 and 44.8 and 39.1 and 40.4
Carrageenan-induced allodynia, mechanical threshold (von Frey) (mice [20]; 30 mg/kg PO): 45.8 and 24.2 and 57.3 and 32.3 and 42.9 and 24.5 and 10.4 and 51.4 and 11.4 and 35.4
effect on carrageenan-mediated mechanical allodynia (mice [20]; 30 mg/kg i.p. or p.o.): significant anti-allodynic properties
